Data reported in patent US6458812B1, “Muscarinic antagonists” (Schering Corporation, priority 2000, dated 2002).
Where a name gives a salt, the structure may show the parent alone.

Columns and labels:
[1] = Microsomal stability, rat; assay type: in vitro ADME; settings: rat liver microsomes, 37° C.
Method: (§1) A solution of a compound of formula I at a final substrate concentration of […] and human, cynomolgus monkey or rat liver microsomes at final P450 concentrations of 0.18, 0.175 and 0.25 nmol/ml, respectively, is incubated in 0.1 M potassium phosphate buffer at pH 7.4 in 96-well micro-titre plates at 37° C. for 3 min in a shaking water bath. A cofactor solution containing MgCl2, Glucose-6-phosphate, NADPH, and Glucose-6-phosphate dehydrogenase is added to each sample (half the total incubation volume/sample) and the total incubation mixture is incubated for 0 and 30 min. (An n=3 samples is incubated for each compound). After each time point, an equal volume of CH3CN is added. The samples are mixed by vortexing and the plates are centrifuged at 3000 rpm for 20 min. The supernatant is analyzed by Liquid Chromatography Mass Spectrometry (LCMS) for parent drug and/or metabolites using an appropriate analytical method.

[2] = Microsomal stability, human; assay type: in vitro ADME; settings: human liver microsomes, 37° C.
Method: as §1

[3] = Microsomal stability, monkey; assay type: in vitro ADME, cynomolgus monkey; settings: monkey liver microsomes, 37° C.
Method: as §1

## C[C@H](NC(=O)c1ccc(CC2CCN(C3CCCCC3)CC2)cc1)c1ccc(F)cc1 (as salt: HCl) [Example 2]
other
  melting point: 234 to 235 °C

## C[C@H](NC(=O)c1ccc(CC2CCN(C3CCCCC3)CC2)cc1)c1ccc(F)cc1 [Example 2]
[1]
  % remaining after 30 min.: 79%
[2]
  % remaining after 30 min.: 80%
[3]
  % remaining after 30 min.: 80%
